Assay results from US20260184663A1, “INDENE COMPOUNDS, PHARMACEUTICAL COMPOSITIONS THEREOF, AND THEIR THERAPEUTIC APPLICATIONS” (NucMito Pharmaceuticals co. Ltd., priority 2022, published 2026).

Experiments:
Format in all cases: cell-based
[1] = system: alpha-smooth muscle actin (α-SMA); test: Inhibition of TGF-β induced expression of alpha-smooth muscle actin (α-SMA) in CFSC cells (western blot); conditions: compound at 10 μM, TGF-β (10 ng/mL), 24 hours, band intensity vs TGF-β only
Protocol: The ability of a compound to inhabit the TGF-β induced expression of alpha-smooth muscle actin (α-SMA) was evaluated in CCl4-treated fat storing (CFSC) cells. α-SMA is considered as a reliable marker of hepatic stellate cell activation and a key biomarker for liver fibrosis.
CFSC cells maintained in a DMEM medium supplemented with 10% fetal bovine serum were seeded to 12-well culture dishes and grown to a confluence of 60-70% the next day. Culture was changed to a serum-free DMEM medium, and the cells were treated with a compound at 10 μM in the presence of TGF-β (10 ng/mL). The cells were incubated for another 24 hours. All culture was maintained at 37° C. in 5% carbon dioxide.
An NP-40 lysate solution (50 mM Tris (pH 7.4), 150 mM NaCl, 1% NP-40) with EDTA free cocktail added was used to lyse the cells on ice for 30 min. The lysate was collected and centrifuged at 4° C. for 10 min at 12,000 rpm. The pellet was discarded and the supernatant was transferred to a new tube. Cell lysates were loaded with 5× loading buffer and boiled for 10 min, resolved by 10% SDS-polyacrylamide gel electrophoresis (SDS-PAGE), and transferred to PVDF membrane. The membrane was blocked with 5% skim milk in Tris-buffered saline and TWEEN® 20 (TBST; 10 mM Tris-HCl (pH 8.0), 150 mM NaCl, 0.1% TWEEN® 20) for 1 h at room temperature and then incubated with α-SMA and β-actin antibodies overnight at 4° C. After washing twice with TBST, the membrane was probed with a horseradish […] anti-immunoglobulin (1:5000 dilution) for 1 h at room temperature. After two subsequent rinses in TBST, immunoreactive products were reacted with ECL and visualized by a UVP CHEMSTUDIO™ imaging system. The western blotting bands are quantitated using an ImageJ software. The percentage of inhibition was obtained by calculating the percentage decrease in the band intensity compared to the one treated with TGF-β only.
The results are summarized in Table 1, where A represents a value no less of 80% inhibition, B represents a value less than […] but no less than […], C represents a value less than 50% but no less than 30% inhibition, and D represents a value less than 30% inhibition with a compound at 10 μM.

[2] = system: MDA-MB-231 (breast cancer); test: Antiproliferative activity (CCK-8 cell viability), MDA-MB-231; conditions: Homo sapiens, 72 h, read-out: Antiproliferative activity in cancerous cells, MDA-MB-231 (inhibition of cell growth); for inhibition at 3.3 µM: Compound concentration: 3.3 μM; for inhibition at 10 µM: Compound concentration: 10 μM
Outline: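 Growth inhibition of human MDA-MB-231 breast cancer cells was assessed with a Cell Counting Kit-8. Cells cultured in DMEM plus 10% FBS were seeded at 2,000-5,000 cells/well, treated after attachment, and kept 72 h at 37° C. CCK-8 solution (10 μL) was added for 4 h, and absorbance at 450 nm was compared with DMSO-treated controls.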

HepG2 (liver cancer) = test: Antiproliferative activity (CCK-8 cell viability), HepG2; conditions: Homo sapiens, 72 h, read-out: Antiproliferative activity in cancerous cells, HepG2 (inhibition of cell growth); for inhibition at 3.3 µM: Compound concentration: 3.3 μM; for inhibition at 10 µM: Compound concentration: 10 μM
Outline: (§1)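 Growth inhibition graded in bands from percent viability against DMSO vehicle, read as CCK-8 absorbance at 450 nm. Compound tested at 3.3, 10 or 30 μM for 72 h, 37 °C; media contained 10% FBS: DMEM for HepG2/SW480, MEM for HeLa, F-12K for A549.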

SW480 (colon cancer) = test: Antiproliferative activity (CCK-8 cell viability), SW480; conditions: Homo sapiens, 72 h, read-out: Antiproliferative activity in cancerous cells, SW480 (inhibition of cell growth); for inhibition at 3.3 µM: Compound concentration: 3.3 μM; for inhibition at 10 µM: Compound concentration: 10 μM
Outline: as §1

[3] = system: B16F10 (malignant melanoma); test: Antiproliferative activity (CCK-8 cell viability), B16F10; conditions: Mus musculus, 72 h, read-out: Antiproliferative activity in cancerous cells, B16F10 (inhibition of cell growth); for inhibition at 3.3 µM: B16-F10, Compound concentration: 3.3 μM; for inhibition at 10 µM: B16-F10, Compound concentration: 10 μM
Outline: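 Cell growth inhibition was measured in B16F10 malignant melanoma cells with a Cell Counting Kit-8 viability assay. Cells were maintained in DMEM plus 10% fetal bovine serum, seeded at 2,000-5,000 cells/well in 96-well plates, and treated for 72 h at 37° C. Viability was expressed relative to DMSO-treated vehicle control wells.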

[4] = system: A431 (epidermoid carcinoma); test: Antiproliferative activity (CCK-8 cell viability), A431; conditions: Homo sapiens, 72 h, read-out: Antiproliferative activity in cancerous cells, A431 (inhibition of cell growth); for inhibition at 3.3 µM: A-431, Compound concentration: 3.3 μM; for inhibition at 10 µM: A-431, Compound concentration: 10 μM
Outline: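 This growth inhibition assay used A431 cells maintained in Dulbecco's modified Eagle's medium plus 10% fetal bovine serum. Cells were seeded in 96-well plates, treated with compound for 72 h at 37° C., and then given 10 μL CCK-8 solution. After a further 4 h, absorbance was read at 450 nm.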

[5] = system: A549 (lung adenocarcinoma); test: Antiproliferative activity (CCK-8 cell viability), A549; conditions: Homo sapiens, 72 h, read-out: Antiproliferative activity in cancerous cells, A549 (inhibition of cell growth); for inhibition at 3.3 µM: Compound concentration: 3.3 μM; for inhibition at 10 µM: Compound concentration: 10 μM
Outline: as §1

HeLa (cervical cancer) = test: Antiproliferative activity (CCK-8 cell viability), HeLa; conditions: Homo sapiens, 72 h, read-out: Antiproliferative activity in cancerous cells, HELA (inhibition of cell growth); for inhibition at 3.3 µM: Compound concentration: 3.3 μM; for inhibition at 10 µM: Compound concentration: 10 μM
Outline: as §1

O=C(O)CC1=C(Cc2ccccc2)/C(=C/c2ccc(COc3ccccc3)cc2)c2ccc(F)cc21 [A1, (Z)-2-(2-Benzyl-5-fluoro-1-(4-(phenoxymethyl)benzylidene)-1H-inden-3-yl)-acetic acid]
< 30%: inhibition at 3.3 µM [5]
30 to 50%: inhibition at 3.3 µM (HepG2 (liver cancer)) | inhibition at 3.3 µM [3] | inhibition at 3.3 µM [4] | inhibition at 10 µM [5]
≥ 50%: inhibition at 3.3 µM [2] | inhibition at 10 µM [2] | inhibition at 10 µM (HepG2 (liver cancer)) | inhibition at 3.3 µM (SW480 (colon cancer)) | inhibition at 10 µM (SW480 (colon cancer)) | inhibition at 10 µM [3] | inhibition at 10 µM [4] | inhibition at 3.3 µM (HeLa (cervical cancer)) | inhibition at 10 µM (HeLa (cervical cancer))
> 80%: inhibition at 10 µM [1]

CCC1=C(CC(=O)O)c2cc(F)ccc2/C1=C\c1ccc(COc2ccccc2)cc1 [A2, (Z)-2-(2-Ethyl-5-fluoro-1-(4-(phenoxymethyl)benzylidene)-1H-inden-3-yl)acetic acid]
< 30%: inhibition at 3.3 µM (SW480 (colon cancer)) | inhibition at 10 µM (SW480 (colon cancer)) | inhibition at 3.3 µM [4]
≥ 50%: inhibition at 3.3 µM [2] | inhibition at 10 µM [2] | inhibition at 10 µM (HepG2 (liver cancer)) | inhibition at 10 µM [3] | inhibition at 10 µM [5] | inhibition at 10 µM (HeLa (cervical cancer))
30 to 50%: inhibition at 3.3 µM (HepG2 (liver cancer)) | inhibition at 3.3 µM [3] | inhibition at 10 µM [4] | inhibition at 3.3 µM [5] | inhibition at 3.3 µM (HeLa (cervical cancer))
> 80%: inhibition at 10 µM [1]

O=C(O)CC1=C(CC2CCCC2)/C(=C/c2ccc(COc3ccccc3)cc2)c2ccc(F)cc21 [A3, (Z)-2-(2-(Cyclopentylmethyl)-5-fluoro-1-(4-(phenoxymethyl)benzylidene)-1H-inden-3-yl)acetic acid]
> 80%: inhibition at 10 µM [1]
≥ 50%: inhibition at 3.3 µM [2] | inhibition at 10 µM [2] | inhibition at 10 µM (HepG2 (liver cancer)) | inhibition at 3.3 µM (SW480 (colon cancer)) | inhibition at 10 µM (SW480 (colon cancer)) | inhibition at 3.3 µM [3] | inhibition at 10 µM [3] | inhibition at 3.3 µM [4] | inhibition at 10 µM [4] | inhibition at 10 µM [5] | inhibition at 10 µM (HeLa (cervical cancer))
30 to 50%: inhibition at 3.3 µM (HepG2 (liver cancer)) | inhibition at 3.3 µM [5] | inhibition at 3.3 µM (HeLa (cervical cancer))

CCCC1=C(CC(=O)O)c2cc(F)ccc2/C1=C\c1ccc(COc2ccccc2)cc1 [A4, (Z)-2-(5-Fluoro-1-(4-(phenoxymethyl)benzylidene)-2-propyl-1H-inden-3-yl)-acetic acid]
30 to 50%: inhibition at 3.3 µM (HepG2 (liver cancer)) | inhibition at 10 µM (SW480 (colon cancer)) | inhibition at 3.3 µM [3] | inhibition at 3.3 µM [5]
< 30%: inhibition at 3.3 µM (SW480 (colon cancer)) | inhibition at 3.3 µM [4]
50 to 80%: inhibition at 10 µM [1]
≥ 50%: inhibition at 3.3 µM [2] | inhibition at 10 µM [2] | inhibition at 10 µM (HepG2 (liver cancer)) | inhibition at 10 µM [3] | inhibition at 10 µM [4] | inhibition at 10 µM [5] | inhibition at 3.3 µM (HeLa (cervical cancer)) | inhibition at 10 µM (HeLa (cervical cancer))

CCC1=C(CC(=O)O)c2cc(F)ccc2/C1=C\c1cccc(COc2ccccc2)c1 [A5, (Z)-2-(2-Ethyl-5-fluoro-1-(3-(phenoxymethyl)benzylidene)-1H-inden-3-yl)acetic acid]
30 to 50%: inhibition at 3.3 µM (HepG2 (liver cancer)) | inhibition at 3.3 µM [3] | inhibition at 3.3 µM [5] | inhibition at 3.3 µM (HeLa (cervical cancer))
≥ 50%: inhibition at 3.3 µM [2] | inhibition at 10 µM [2] | inhibition at 10 µM (HepG2 (liver cancer)) | inhibition at 10 µM (SW480 (colon cancer)) | inhibition at 10 µM [3] | inhibition at 10 µM [4] | inhibition at 10 µM [5] | inhibition at 10 µM (HeLa (cervical cancer))
> 80%: inhibition at 10 µM [1]
< 30%: inhibition at 3.3 µM (SW480 (colon cancer)) | inhibition at 3.3 µM [4]

O=C(O)CC1=C(CC2CCCC2)/C(=C/c2cccc(COc3ccccc3)c2)c2ccc(F)cc21 [A6, (Z)-2-(2-(Cyclopentylmethyl)-5-fluoro-1-(3-(phenoxymethyl)benzylidene)-1H-inden-3-yl)acetic acid]
> 80%: inhibition at 10 µM [1]
≥ 50%: inhibition at 3.3 µM [2] | inhibition at 10 µM [2] | inhibition at 3.3 µM (HepG2 (liver cancer)) | inhibition at 10 µM (HepG2 (liver cancer)) | inhibition at 10 µM (SW480 (colon cancer)) | inhibition at 3.3 µM [3] | inhibition at 10 µM [3] | inhibition at 3.3 µM [4] | inhibition at 10 µM [4] | inhibition at 3.3 µM [5] | inhibition at 10 µM [5] | inhibition at 3.3 µM (HeLa (cervical cancer)) | inhibition at 10 µM (HeLa (cervical cancer))
< 30%: inhibition at 3.3 µM (SW480 (colon cancer))

CC1=C(CCO)c2cc(F)ccc2/C1=C\c1cccc(Oc2ccccc2)c1 [A202, (Z)-2-(5-Fluoro-2-methyl-1-(3-phenoxybenzylidene)-1H-inden-3-yl)ethan-1-ol]
< 30%: inhibition at 10 µM [1]

CC1=C(CC(=O)O)c2cc(F)ccc2/C1=C\c1ccc(COc2ccc(F)cc2)cc1F [B23, (Z)-2-(5-Fluoro-1-(2-fluoro-4-((4-fluorophenoxy)methyl)benzylidene)-2-methyl-1H-inden-3-yl)acetic acid]
50 to 80%: inhibition at 10 µM [1]

COc1cc(COc2ccc(F)cc2)ccc1/C=C1/C(C)=C(CC(=O)O)c2cc(F)ccc21 [B25, (Z)-2-(5-Fluoro-1-(4-((4-fluorophenoxy)methyl)-2-methoxybenzylidene)-2-methyl-1H-inden-3-yl)acetic acid]
> 80%: inhibition at 10 µM [1]

CC1=C(CCC(=O)O)c2ccccc2/C1=C\c1cccc(Oc2ccccc2)c1 [C24, (Z)-3-(2-Methyl-1-(3-phenoxybenzylidene)-1H-inden-3-yl)propanoic acid]
< 30%: inhibition at 10 µM [1]

CC1=C(C=CC(=O)O)c2cc(F)ccc2/C1=C\c1ccc(Oc2ccc(F)cc2)cc1 [C33, 3-(5-Fluoro-1-((Z)-4-(4-fluorophenoxy)benzylidene)-2-methyl-1H-inden-3-yl)-acrylic acid]
> 80%: inhibition at 10 µM [1]

CC1=C(C(C)C(=O)O)c2ccccc2/C1=C\c1ccc(C(C)C)cc1 (stereo not drawn) [D3, (Z)-2-(1-(4-Isopropylbenzylidene)-2-methyl-1H-inden-3-yl)propanoic acid]
< 30%: inhibition at 10 µM [1]
